Measured values reported in patent US6352958B1, “Cycloimido-substituted benzofused heterocyclic herbicides” (FMC Corporation, priority 1997, dated 2002).

Assays:
Type in all cases: in vivo
[1] = system: wheat (Triticum aestivum var. Lew); experiment: Preemergence herbicidal activity, wheat; settings: Rate of Application 0.3 Kg/Ha, examined after 12-17 days
[2] = system: morningglory (Ipomea lacunosa or Ipomea hederacea); experiment: Postemergence herbicidal activity, morningglory; settings: rate of application 0.3 Kg/Ha, rated after 12-17 days
[3] = system: field corn (Zea mays var. Pioneer 3732); experiment: Postemergence herbicidal activity, corn; settings: rate of application 0.3 Kg/Ha, rated after 12-17 days
[4] = system: common cocklebur (Xanthium strumarium L.); experiment: Preemergence herbicidal activity, cocklebur; settings: Rate of Application 0.3 Kg/Ha, examined after 12-17 days
[5] = system: green foxtail (Setaria viridis); experiment: Postemergence herbicidal activity, green foxtail; settings: rate of application 0.3 Kg/Ha, rated after 12-17 days
[6] = system: soybean (Glycine max var. Winchester); experiment: Preemergence herbicidal activity, soybean; settings: Rate of Application 0.3 Kg/Ha, examined after 12-17 days
[7] = system: field corn (Zea mays var. Pioneer 3732); experiment: Preemergence herbicidal activity, corn; settings: Rate of Application 0.3 Kg/Ha, examined after 12-17 days
[8] = system: morningglory (Ipomea lacunosa or Ipomea hederacea); experiment: Preemergence herbicidal activity, morningglory; settings: Rate of Application 0.3 Kg/Ha, examined after 12-17 days
[9] = system: Johnsongrass (Sorghum halepense); experiment: Postemergence herbicidal activity, johnsongrass; settings: rate of application 0.3 Kg/Ha, rated after 12-17 days
[10] = system: soybean (Glycine max var. Winchester); experiment: Postemergence herbicidal activity, soybean; settings: rate of application 0.3 Kg/Ha, rated after 12-17 days
[11] = system: Johnsongrass (Sorghum halepense); experiment: Preemergence herbicidal activity, johnsongrass; settings: Rate of Application 0.3 Kg/Ha, examined after 12-17 days
[12] = system: common cocklebur (Xanthium strumarium L.); experiment: Postemergence herbicidal activity, cocklebur; settings: rate of application 0.3 Kg/Ha, rated after 12-17 days
[13] = system: wheat (Triticum aestivum var. Lew); experiment: Postemergence herbicidal activity, wheat; settings: rate of application 0.3 Kg/Ha, rated after 12-17 days
[14] = system: green foxtail (Setaria viridis); experiment: Preemergence herbicidal activity, green foxtail; settings: Rate of Application 0.3 Kg/Ha, examined after 12-17 days
[15] = system: velvetleaf (Abutilon theophrasti); experiment: Preemergence herbicidal activity, velvetleaf; settings: Rate of Application 0.3 Kg/Ha, examined after 12-17 days
[16] = system: common chickweed (Stellaria media); experiment: Preemergence herbicidal activity, chickweed; settings: Rate of Application 0.3 Kg/Ha, examined after 12-17 days
[17] = system: common chickweed (Stellaria media); experiment: Postemergence herbicidal activity, chickweed; settings: rate of application 0.3 Kg/Ha, rated after 12-17 days
Protocol: The benzofused heterocyclic compounds of this invention were tested for pre- and postemergence herbicidal activity using a variety of crops and weeds. The test plants included soybean (Glycine max var. Winchester), field corn (Zea mays var. Pioneer 3732), wheat (Triticum aestivum var. Lew), morningglory (Ipomea lacunosa or Ipomea hederacea), velvetleaf (Abutilon theophrasti), green foxtail (Setaria viridis), Johnsongrass (Sorghum halepense), blackgrass (Aloepecurus myosuroides), common chickweed (Stellaria media), and common cocklebur (Xanthium strumarium L.).
For preemergence testing, two disposable fiber flats (8 cm×15 cm×25 cm) for each rate of application of each candidate herbicide were filled to an approximate depth of 6.5 cm with steam-sterilized sandy loam soil. The soil was leveled and impressed with a template to provide five evenly spaced furrows 13 cm long and 0.5 cm deep in each flat. Seeds of soybean, wheat, corn, green foxtail, and johnsongrass were planted in the furrows of the first flat, and seeds of velvetleaf, morningglory, common chickweed, cocklebur, and blackgrass were planted in the furrows of the second flat. The five-row template was employed to firmly press the seeds into place. A topping soil of equal portions of sand and sandy loam soil was placed uniformly on top of each flat to a depth of approximately 0.5 cm. Flats for postemergence testing were prepared in the same manner except that they were planted 9-14 days prior to the preemergence flats and were placed in a greenhouse and watered, thus allowing the seeds to germinate and the foliage to develop.
In both pre- and postemergence tests, a stock solution of the candidate herbicide was prepared by dissolving 0.27 g of the compound in 20 mL of water/acetone (50/50) containing 0.5% v/v sorbitan monolaurate. For an application rate of 3000 g/ha of herbicide a 10 mL portion of the stock solution was diluted with water/acetone (50/50) to 45 mL.
The preemergence flats were initially subjected to a light water spray. The four flats were placed two by two along a conveyor belt (i.e., the two preemergence followed by the two postemergence flats). The conveyor belt fed under a spray nozzle mounted about ten inches above the post-emergent foliage. The preemergent flats were elevated on the belt so that the soil surface was at the same level below the spray nozzle as the foliage canopy of the postemergent plants. The spray of herbicidal solution was commenced and once stabilized, the flats were passed under the spray at a speed to receive a coverage equivalent of 100 L/ha. At this coverage the application rates are those shown in the above table for the individual herbicidal solutions. The preemergence flats were watered immediately thereafter, placed in the greenhouse and watered regularly at the soil surface. The postemergence flats were immediately placed in the green-house and not watered until 24 hours after treatment with the test solution. Thereafter they were regularly watered at ground level. After 12-17 days the plants were examined and the phytotoxicity data were recorded.
Phytotoxicity data were taken as percent control. Percent control was determined by a method similar to the 0 to 100 rating system disclosed in “Research Methods in Weed Science,” 2nd ed., B. Truelove, Ed.; Southern Weed Science Society; Auburn University, Auburn, Ala., 1977.

[18] = system: velvetleaf (Abutilon theophrasti); experiment: Postemergence herbicidal activity, velvetleaf; settings: rate of application 0.3 Kg/Ha, rated after 12-17 days

| Structure (SMILES) | PREEMERGENCE HERBICIDAL ACTIVITY (% CONTROL) WHT [1] [%] | Postemergence herbicidal activity (% control) IPOSS [2] [%] | Postemergence herbicidal activity (% control) CRN [3] [%] | PREEMERGENCE HERBICIDAL ACTIVITY (% CONTROL) XANPE [4] [%] | Postemergence herbicidal activity (% control) SETVI [5] [%] | PREEMERGENCE HERBICIDAL ACTIVITY (% CONTROL) SOY [6] [%] | PREEMERGENCE HERBICIDAL ACTIVITY (% CONTROL) CRN [7] [%] | PREEMERGENCE HERBICIDAL ACTIVITY (% CONTROL) IPOSS [8] [%] | Postemergence herbicidal activity (% control) SORHA [9] [%] | Postemergence herbicidal activity (% control) SOY [10] [%] | PREEMERGENCE HERBICIDAL ACTIVITY (% CONTROL) SORHA [11] [%] | Postemergence herbicidal activity (% control) XANPE [12] [%] | Postemergence herbicidal activity (% control) WHT [13] [%] | PREEMERGENCE HERBICIDAL ACTIVITY (% CONTROL) SETVI [14] [%] | PREEMERGENCE HERBICIDAL ACTIVITY (% CONTROL) ABUTH [15] [%] | PREEMERGENCE HERBICIDAL ACTIVITY (% CONTROL) STEME [16] [%] | Postemergence herbicidal activity (% control) STEME [17] [%] | Postemergence herbicidal activity (% control) ABUTH [18] [%] |
| --- | --- | --- | --- | --- | --- | --- | --- | --- | --- | --- | --- | --- | --- | --- | --- | --- | --- | --- |
| CC(O)c1cc2c(Cl)cc(F)c(-n3c(=O)cc(C(F)(F)F)n(C)c3=O)c2o1 (stereo not drawn) [Compound 240] | 95 | 100 | 100 | 100 | 100 | 100 | 95 | 100 | 100 | 95 | 100 | 100 | 95 | 100 | 100 | 100 | 100 | 100 |
| Cn1c(C(F)(F)F)cc(=O)n(-c2ccc(Cl)c3cc(C(C)(C)O)oc23)c1=O [Compound 241] | 70 | 100 | 70 | 100 | 100 | 60 | 95 | 100 | 70 | 90 | 100 | 95 | 60 | 100 | 100 | 100 | 85 | 100 |
| CC(O)Cc1cc2c(Cl)cc(F)c(-n3c(=O)cc(C(F)(F)F)n(C)c3=O)c2o1 (stereo not drawn) [Compound 243] | 80 | 100 | 95 | 100 | 100 | 100 | 95 | 100 | 100 | 95 | 100 | 100 | 70 | 100 | 100 | 100 | 100 | 100 |
| Cn1c(C(F)(F)F)cc(=O)n(-c2c(F)cc(Cl)c3cc(C(C)(C)NS(C)(=O)=O)oc23)c1=O [Compound 255] | 90 | 100 | 100 | 100 | 100 | 100 | 95 | 100 | 100 | 100 | 100 | 100 | 100 | 100 | 100 | 100 | 100 | 100 |
| Cn1c(C(F)(F)F)cc(=O)n(-c2ccc(Cl)c3cc(C=O)oc23)c1=O [Compound 265] | 40 | 100 | 60 | 70 | 40 | 70 | 80 | 100 | 20 | 70 | 60 | 20 | 40 | 80 | 90 | 20 | 30 | 100 |
